These results are taken from US20210128724A1 (priority 2019, published 2021).

For experiment [1], the system named is trigeminovascular Aδ-nociceptors, high threshold (HT) neurons, C-fiber and wide dynamic range (WDR) neurons. The note with it: rat, in vivo.
The test system of experiment [2] is Aδ-fibers in the trigeminal ganglion. The note with it: rat, in vivo.
Experiment [3] deals with C-fibers in the trigeminal ganglion. The note with it: rat, in vivo.
Experiment [4] concerns neurons in the trigeminal ganglion. The note with it: rat, in vivo.
On the set-up of experiment [5]: species or system human. The note with it: in vivo; for Development of post-traumatic syndrome after treatment within the first day after blast injury: sc.
On the set-up of experiment [6]: species or system human. As to conditions: in vivo.

Take fremanezumab: in experiment [1], the “Activation of C-fiber and wide dynamic range (WDR) neurons” value was “not”; the “Activation of trigeminovascular Aδ-nociceptors and high threshold (HT) neurons” value is “blocked the activation”.
onabotulinumtoxinA [BoNT-A]: in experiment [2], the “Baseline firing rate, Aδ-neurons” value was 0.7 spikes/sec and the “Effect on response to CSD in Aδ-neurons” value was “no significant difference”. In experiment [3], the “Baseline firing rate, C-fibers” value amounted to 0.7 spikes/sec and the “Effect on response to CSD in unmyelinated C-fibers” value is recorded as “inhibited the response to CSD”. Further, the “Baseline firing rate prior to CSD” value in experiment [4] is 0.7 Hz. Moreover, in experiment [5], the “Outcome after treatment once symptoms had developed after blast injury” value was “headaches resolve a month after their treatment with decreased photophobia, dizziness, tinnitus and insomnia”; the “Development of post-traumatic syndrome after treatment within the first day after blast injury” value is listed as “do not develop any features of a post-traumatic syndrome”. For the same molecule, in experiment [6], the “Outcome after treatment following 1 month of symptoms after head injury” value is “headaches are lessened in severity and frequency, they experience improved sleep and improved cognition”; the “Outcome after treatment promptly after head injury, before onset of symptoms” value is recorded as “continues to do well”.

B1: Galcanezumab (antibody, chains of the INN, looked up, V domains shown)
VH: QVQLVQSGAEVKKPGSSVKVSCKASGYTFGNYWMQWVRQAPGQGLEWMGAIYEGTGKTVYIQKFADRVTITADKSTSTAYMELSSLRSEDTAVYYCARLSDYVSGFGYWGQGTTVTVSS
VL: DIQMTQSPSSLSASVGDRVTITCRASKDISKYLNWYQQKPGKAPKLLIYYTSGYHSGVPSRFSGSGSGTDFTLTISSLQPEDFATYYCQQGDALPPTFGGGTKVEIK
For the molecule B1, the “Development of post-traumatic syndrome after treatment within the first day after blast injury” value in experiment [5] is “do not develop any features of a post-traumatic syndrome”.
